Data reported in patent US20240090503A1, “FUNGICIDAL OXADIAZOLES AND THEIR MIXTURES” (FMC CORPORATION, priority 2020, published 2024).
Marks after values point to notes of the source that are not given here.

Experiments:
Format in all cases: in vivo
[1] = system: Phakopsora pachyrhizi (the causal agent of Asian soybean rust); test: Test A: preventive spray on soybean seedlings, Asian soybean rust, visual disease rating; settings: soybean seedlings
Method in brief: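 Preventive test: soybean seedlings received a run-off spray of compound suspended at the set ppm in 50/50 acetone/water plus 250 ppm PEG400, and one day later a P. pachyrhizi spore inoculum. Visual scoring (0 none to 100 full disease control) followed 24 h saturated incubation and 8 days' growth chamber, both at 22° C.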

[2] = system: Zymoseptoria tritici (the causal agent of wheat leaf blotch); test: Test B: preventive spray on wheat seedlings, wheat leaf blotch, visual disease rating; settings: wheat seedlings
Source text: General protocol for preparing test suspensions for Tests A-D: the test compounds were first dissolved in acetone in an amount equal to 3% of the final volume and then suspended at the desired concentration (in ppm) in acetone and purified water (50/50 mix by volume) containing 250 ppm of the surfactant PEG400 (polyhydric alcohol esters). The resulting test suspensions were then used in Tests A-D.
The test suspension was sprayed to the point of run-off on wheat seedlings. The following day the seedlings were inoculated with a spore suspension of Zymoseptoria tritici (the causal agent of wheat leaf blotch) and incubated in a saturated atmosphere at 24° C. for 48 h, and then moved to a growth chamber at 20° C. for 17 days, after which time visual disease ratings were made.
The test results for Tests A-C presented in Table A below for compounds of Formula 1 illustrate the fungicidal activity of component (a) contributing to the plant disease control utility of compositions comprising component (a) in combination with component (b) according to the present invention. In the Table, a rating of 100 indicates 100% disease control and a rating of 0 indicates no disease control (relative to the controls). A dash (-) indicates the compound was not tested. The test suspensions were sprayed at the concentration listed in the column “Rate in ppm”, unless otherwise indicated. An asterisk “*” next to the rating indicates a 250 ppm test suspension was used, a double asterisk “**” next to the rating indicates a 100 ppm test suspension was used, and a triple asterisk “***” next to the rating indicates a 50 ppm test suspension was used.

[3] = system: Puccinia recondita f. sp. tritici (the causal agent of wheat leaf rust); test: Test C: preventive spray on wheat seedlings, wheat leaf rust, visual disease rating; settings: wheat seedlings
Method in brief: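 Wheat seedlings sprayed to run-off with compound in acetone/water (50/50) with 250 ppm PEG400, then inoculated with spores the following day. After 24 h saturated humidity at 20° C. and 6 days in growth chamber at 20° C., disease rated visually as % control relative to untreated controls.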

[4] = 10 ppm test suspension, 100 = 100% disease control, 0 = no control
[5] = 250 ppm test suspension, 100 = 100% disease control
[6] = test suspension 10 ppm, 100 = 100% disease control, 0 = no control
[7] = test suspension 100 ppm (** next to rating)

COC(=O)c1csc(Cc2ccc(-c3noc(C(F)(F)F)n3)cc2)c1 [Compound 455]
Test A disease control rating [1, 4]: 100%
Test B disease control rating [2, 5]: 66* %
Test C disease control rating [3, 4]: 0%

O=C(NCC(F)(F)F)c1csc(Cc2ccc(-c3noc(C(F)(F)F)n3)cc2)n1 [Compound 463, N-(2,2,2-trifluoroethyl)-2-[[4-[5-(trifluoromethyl)-1,2,4-oxadiazol-3-yl]phenyl]methyl]-4-thiazolecarboxamide]
pest or weed control at 10 ppm ([1]; Phakopsora pachyrhizi, 216 h, 10 ppm test suspension, 100 = 100% disease control, 0 = no control): 100%
pest or weed control at 250 ppm ([2]; Zymoseptoria tritici, 456 h, 250 ppm test suspension, 100 = 100% disease control): 65%
pest or weed control at 10 ppm ([3]; Puccinia recondita, 168 h, 10 ppm test suspension, 100 = 100% disease control, 0 = no control): 100%

COC(=O)c1coc(Cc2ccc(-c3noc(C(F)(F)F)n3)cc2)n1 [Compound 490]
Test A disease control rating [1, 4]: 100%
Test B disease control rating [2, 5]: 94* %
Test C disease control rating [3, 4]: 74%

Cc1ccccc1C(O)c1ccc(-c2noc(C(F)(F)F)n2)cc1 (stereo not drawn) [Compound 497]
Test A disease control rating [1, 4]: 100%
Test B disease control rating [2, 5]: 5* %
Test C disease control rating [3, 4]: 0%

CN(C)N=Cc1cnn(Cc2ccc(-c3noc(C(F)(F)F)n3)cc2)c1 [compound 19]
Test A disease control rating ([1]; test suspension 250 ppm): 100%
Test B disease control rating ([2]; test suspension 250 ppm): 100%
Test C disease control rating ([3]; test suspension 250 ppm): 100%

CON=Cc1cnn(Cc2ccc(-c3noc(C(F)(F)F)n3)cc2)c1 [compound 25]
Test A disease control rating ([1]; test suspension 250 ppm): 100%
Test B disease control rating ([2]; test suspension 250 ppm): 86* %
Test C disease control rating ([3]; test suspension 250 ppm): 100%

O=C(O)CON=Cc1cnn(Cc2ccc(-c3noc(C(F)(F)F)n3)cc2)c1 [compound 26]
Test A disease control rating ([1]; test suspension 250 ppm): 100%
Test B disease control rating ([2]; test suspension 250 ppm): 46* %
Test C disease control rating ([3]; test suspension 250 ppm): 100%

CCOC(=O)C1=NOC(Cc2ccc(-c3noc(C(F)(F)F)n3)cc2)C1 (stereo not drawn) [compound 29]
Test A disease control rating [1, 6]: 73%
Test B disease control rating ([2]; test suspension 250 ppm): 94* %
Test C disease control rating ([3]; test suspension 10 ppm): 19%

C#CCOC(=O)c1cnn(Cc2ccc(-c3noc(C(F)(F)F)n3)cc2)c1 [compound 56]
Test A disease control rating [1, 6]: 100%
Test B disease control rating [2, 7]: 68** %
Test C disease control rating ([3]; test suspension 10 ppm): 100%

CC(C)OC(=O)c1cnn(Cc2ccc(-c3noc(C(F)(F)F)n3)cc2)c1 [compound 58]
Test A disease control rating [1, 6]: 100%
Test B disease control rating [2, 7]: 83** %
Test C disease control rating ([3]; test suspension 10 ppm): 100%

COCCOC(=O)c1cnn(Cc2ccc(-c3noc(C(F)(F)F)n3)cc2)c1 [compound 59]
Test A disease control rating [1, 6]: 100%
Test B disease control rating [2, 7]: 58** %
Test C disease control rating ([3]; test suspension 10 ppm): 100%

CCCOC(=O)c1cnn(Cc2ccc(-c3noc(C(F)(F)F)n3)cc2)c1 [compound 60]
Test A disease control rating [1, 6]: 100%
Test B disease control rating [2, 7]: 75** %
Test C disease control rating ([3]; test suspension 10 ppm): 100%

CCOC(=O)c1cnn(Cc2ccc(-c3noc(C(F)(F)F)n3)s2)c1 [compound 70]
Test A disease control rating ([1]; test suspension 255 ppm): 100%
Test B disease control rating ([2]; test suspension 255 ppm): 96%
Test C disease control rating ([3]; test suspension 255 ppm): 100%

N#Cc1nn(Cc2ccc(-c3noc(C(F)(F)F)n3)s2)cc1Br [compound 76]
Test A disease control rating ([1]; test suspension 270 ppm): 100%
Test B disease control rating ([2]; test suspension 270 ppm): 41%
Test C disease control rating ([3]; test suspension 270 ppm): 99%

CCOC(=O)c1nn(Cc2ccc(-c3noc(C(F)(F)F)n3)cc2)nc1Br [compound 84]
Test A disease control rating ([1]; test suspension 250 ppm): 100%
Test B disease control rating ([2]; test suspension 250 ppm): 66%
Test C disease control rating ([3]; test suspension 250 ppm): 100%

FC(F)(F)c1nc(-c2ccc(Cn3ccc4cccnc43)cc2)no1 [compound 86]
Test A disease control rating ([1]; test suspension 250 ppm): 100%
Test B disease control rating ([2]; test suspension 250 ppm): 89%
Test C disease control rating ([3]; test suspension 250 ppm): 100%

O=C1C(=O)N(Cc2ccc(-c3noc(C(F)(F)F)n3)cc2)c2ccccc21 [compound 87]
Test A disease control rating ([1]; test suspension 250 ppm): 100%
Test B disease control rating ([2]; test suspension 250 ppm): 82%
Test C disease control rating ([3]; test suspension 250 ppm): 100%

N#Cc1ccc2ccn(Cc3ccc(-c4noc(C(F)(F)F)n4)cc3)c2c1 [compound 88]
Test A disease control rating ([1]; test suspension 250 ppm): 100%
Test B disease control rating ([2]; test suspension 250 ppm): 93%
Test C disease control rating ([3]; test suspension 250 ppm): 100%

N#Cc1ccn(Cc2ccc(-c3noc(C(F)(F)F)n3)cc2)c(=O)c1 [compound 89]
Test A disease control rating ([1]; test suspension 250 ppm): 100%
Test B disease control rating ([2]; test suspension 250 ppm): 83%
Test C disease control rating ([3]; test suspension 250 ppm): 100%

FC(F)(F)c1nc(-c2ccc(Cn3cnc4ccccc43)cc2)no1 [compound 91]
Test A disease control rating ([1]; test suspension 250 ppm): 100%
Test B disease control rating ([2]; test suspension 250 ppm): 96%
Test C disease control rating ([3]; test suspension 250 ppm): 100%

FC(F)(F)c1nc(-c2ccc(Cn3nnc4ccccc43)cc2)no1 [compound 92]
Test A disease control rating ([1]; test suspension 250 ppm): 0%
Test B disease control rating ([2]; test suspension 250 ppm): 96%
Test C disease control rating ([3]; test suspension 250 ppm): 100%

FC(F)(F)c1nc(-c2ccc(Cn3nc4ccccc4n3)cc2)no1 [compound 93]
Test A disease control rating ([1]; test suspension 250 ppm): 100%
Test B disease control rating ([2]; test suspension 250 ppm): 39%
Test C disease control rating ([3]; test suspension 250 ppm): 99%

O=[N+]([O-])c1ccc2c(cnn2Cc2ccc(-c3noc(C(F)(F)F)n3)cc2)c1 [compound 94]
Test A disease control rating ([1]; test suspension 250 ppm): 100%
Test B disease control rating ([2]; test suspension 250 ppm): 35%
Test C disease control rating ([3]; test suspension 250 ppm): 78%

FC(F)(F)c1nc(-c2ccc(CN3CCOCC3)cc2)no1 [compound 96]
Test A disease control rating ([1]; test suspension 250 ppm): 100%
Test B disease control rating ([2]; test suspension 250 ppm): 0%
Test C disease control rating ([3]; test suspension 250 ppm): 99%

CCOC(=O)c1cn(Cc2ccc(-c3noc(C(F)(F)F)n3)cc2)nc1C(F)(F)F [compound 111]
Test A disease control rating ([1]; test suspension 255 ppm): 100%
Test B disease control rating ([2]; test suspension 255 ppm): 0%
Test C disease control rating ([3]; test suspension 255 ppm): 86%

CCOC(=O)c1ccn(Cc2ccc(-c3noc(C(F)(F)F)n3)cc2)n1 [compound 114]
Test A disease control rating ([1]; test suspension 250 ppm): 100%
Test B disease control rating ([2]; test suspension 250 ppm): 0%
Test C disease control rating ([3]; test suspension 250 ppm): 100%

FC(F)(F)c1nc(-c2ccc(Cn3nc(Cl)c4ccccc43)cc2)no1 [compound 116]
Test A disease control rating ([1]; test suspension 265 ppm): 100%
Test B disease control rating ([2]; test suspension 265 ppm): 25%
Test C disease control rating ([3]; test suspension 265 ppm): 99%

CCOC(=O)c1nn(Cc2ccc(-c3noc(C(F)(F)F)n3)cc2)c2ccccc12 [compound 117]
Test A disease control rating ([1]; test suspension 255 ppm): 88%
Test B disease control rating ([2]; test suspension 255 ppm): 0%
Test C disease control rating ([3]; test suspension 255 ppm): 41%

O=c1oc2ccccc2n1Cc1ccc(-c2noc(C(F)(F)F)n2)cc1 [compound 118]
Test A disease control rating ([1]; test suspension 250 ppm): 100%
Test B disease control rating ([2]; test suspension 250 ppm): 0%
Test C disease control rating ([3]; test suspension 250 ppm): 98%

FC(F)(F)c1nc(-c2ccc(Cn3ncc4cc(Cl)ccc43)cc2)no1 [compound 119]
Test A disease control rating ([1]; test suspension 265 ppm): 100%
Test B disease control rating ([2]; test suspension 265 ppm): 54%
Test C disease control rating ([3]; test suspension 265 ppm): 100%

COc1ccc2c(C#N)nn(Cc3ccc(-c4noc(C(F)(F)F)n4)cc3)c2c1 [compound 120]
Test A disease control rating ([1]; test suspension 260 ppm): 99%
Test B disease control rating ([2]; test suspension 260 ppm): 0%
Test C disease control rating ([3]; test suspension 260 ppm): 68%

FC(F)(F)c1nc(-c2ccc(Cn3ccc(-c4ccc(Cl)cc4)n3)cc2)no1 [compound 122]
Test A disease control rating ([1]; test suspension 250 ppm): 100%
Test B disease control rating ([2]; test suspension 250 ppm): 0%
Test C disease control rating ([3]; test suspension 250 ppm): 68%

CCOC(=O)c1c2ccccc2nn1Cc1ccc(-c2noc(C(F)(F)F)n2)cc1 [compound 123]
Test A disease control rating ([1]; test suspension 255 ppm): 100%
Test B disease control rating ([2]; test suspension 255 ppm): 21%
Test C disease control rating ([3]; test suspension 255 ppm): 99%

CCOC(=O)C1CCN(Cc2ccc(-c3noc(C(F)(F)F)n3)cc2)C1 (stereo not drawn) [compound 124]
Test A disease control rating ([1]; test suspension 260 ppm): 100%
Test B disease control rating ([2]; test suspension 260 ppm): 50%
Test C disease control rating ([3]; test suspension 260 ppm): 100%

Fc1cccc2c1cnn2Cc1ccc(-c2noc(C(F)(F)F)n2)cc1 [compound 125]
Test A disease control rating ([1]; test suspension 260 ppm): 100%
Test B disease control rating ([2]; test suspension 260 ppm): 55%
Test C disease control rating ([3]; test suspension 260 ppm): 100%

FC(F)(F)c1nc(-c2ccc(Cn3ncc4cc(Br)ccc43)cc2)no1 [compound 128]
Test A disease control rating ([1]; test suspension 255 ppm): 100%
Test B disease control rating ([2]; test suspension 255 ppm): 19%
Test C disease control rating ([3]; test suspension 255 ppm): 100%

N#Cc1cn(Cc2ccc(-c3noc(C(F)(F)F)n3)cc2)c2ccccc12 [compound 129]
Test A disease control rating ([1]; test suspension 260 ppm): 100%
Test B disease control rating ([2]; test suspension 260 ppm): 0%
Test C disease control rating ([3]; test suspension 260 ppm): 89%

Fc1cccc2nn(Cc3ccc(-c4noc(C(F)(F)F)n4)cc3)cc12 [compound 130]
Test A disease control rating ([1]; test suspension 260 ppm): 100%
Test B disease control rating ([2]; test suspension 260 ppm): 89%
Test C disease control rating ([3]; test suspension 260 ppm): 100%
